Source: ChEMBL document CHEMBL5390254, “Discovery and Optimization of Novel hDHODH Inhibitors for the Treatment of Inflammatory Bowel Disease” (J Med Chem, 2023)
Activity calls are given as the source filed them. The calls are words filed in the database; no cut-off is given here.

Legend:
[1] = Metabolic stability in human liver microsomes assessed as half life at 3 uM incubated upto 90 mins in presence of NADPH by LC-MS/MS analysis; assay type: ADME, Microsome
[2] = Metabolic stability in rat liver microsomes assessed as half life at 3 uM incubated upto 90 mins in presence of NADPH by LC-MS/MS analysis; assay type: ADME, Microsome
[3] = Metabolic stability in mouse liver microsomes assessed as half life at 3 uM incubated upto 90 mins in presence of NADPH by LC-MS/MS analysis; assay type: ADME, Microsome
[4] = Metabolic stability in human liver microsomes assessed as intrinsic clearance at 3 uM incubated upto 90 mins in presence of NADPH by LC-MS/MS analysis; assay type: ADME, Microsome; settings: read-out: CLH
[5] = Metabolic stability in rat liver microsomes assessed as intrinsic clearance at 3 uM incubated upto 90 mins in presence of NADPH by LC-MS/MS analysis; assay type: ADME, Microsome; settings: read-out: CLH
[6] = Metabolic stability in mouse liver microsomes assessed as intrinsic clearance at 3 uM incubated upto 90 mins in presence of NADPH by LC-MS/MS analysis; assay type: ADME, Microsome; settings: read-out: CLH
[7] = 1-octanol/water partition coefficient, logP of the compound at 2 mg by UPLC analysis; assay type: physicochemical
[8] = Acute toxicity in BALB/c mouse assessed as death at 600 mg/kg,po and measured for 14 days; assay type: organism-based; settings: in vivo, 336 h, time 14 day
[9] = Acute toxicity in BALB/c mouse assessed as changes in hematocrit level in blood at 600 mg/kg,po and measured after 14 days by hematology test; assay type: organism-based; settings: in vivo, 336 h, time 14 day
[10] = Acute toxicity in BALB/c mouse assessed as changes in RBC level in blood at 600 mg/kg,po and measured after 14 days by hematology test; assay type: organism-based, Erythrocyte; settings: in vivo, 336 h, time 14 day
[11] = Acute toxicity in BALB/c mouse assessed as changes in lymph level in blood at 600 mg/kg,po and measured after 14 days by hematology test; assay type: organism-based; settings: in vivo, 336 h, time 14 day
[12] = Acute toxicity in BALB/c mouse assessed as changes in neutrophil level in blood at 600 mg/kg,po and measured after 14 days by hematology test; assay type: organism-based; settings: in vivo, 336 h, time 14 day
[13] = Acute toxicity in BALB/c mouse assessed as changes in LDH level in serum at 600 mg/kg,po and measured after 14 days by Biochemistry analysis; assay type: organism-based; settings: in vivo, 336 h, time 14 day
[14] = Acute toxicity in BALB/c mouse assessed as changes in UA level in serum at 600 mg/kg,po and measured after 14 days by Biochemistry analysis; assay type: organism-based; settings: in vivo, 336 h, time 14 day
[15] = Acute toxicity in BALB/c mouse assessed as changes in AST level in serum at 600 mg/kg,po and measured after 14 days by Biochemistry analysis; assay type: organism-based; settings: in vivo, 336 h, time 14 day
[16] = Acute toxicity in BALB/c mouse assessed as changes in TP level in serum at 600 mg/kg,po and measured after 14 days by Biochemistry analysis; assay type: organism-based; settings: in vivo, 336 h, time 14 day
[17] = Acute toxicity in BALB/c mouse assessed as changes in ALB level in serum at 600 mg/kg,po and measured after 14 days by Biochemistry analysis; assay type: organism-based; settings: in vivo, 336 h, time 14 day
[18] = Acute toxicity in BALB/c mouse assessed as changes in urea level in serum at 600 mg/kg,po and measured after 14 days by Biochemistry analysis; assay type: organism-based; settings: in vivo, 336 h, time 14 day
[19] = Acute toxicity in BALB/c mouse assessed as tissue damage in heart at 600 mg/kg,po and measured after 14 days by hematoxylin and eosin staining based microscopy; assay type: organism-based; settings: in vivo, 336 h, time 14 day
[20] = Acute toxicity in BALB/c mouse assessed as tissue damage in spleen at 600 mg/kg,po and measured after 14 days by hematoxylin and eosin staining based microscopy; assay type: organism-based; settings: in vivo, 336 h, time 14 day
Mus musculus [21] = assay: Anti-inflammatory activity against DSS-induced acute ulcerative colitis in C57BL/6 mouse model assessed as decrease in DAI score at 40 mg/kg, po QD for 6 days; assay type: functional, organism-based; settings: time 6.0 day
Mus musculus [22] = assay: Anti-inflammatory activity against DSS-induced acute ulcerative colitis in C57BL/6 mouse model assessed as decrease in colon length shortening at 40 mg/kg, po QD for 6 days (Rvb= 5.5cm); assay type: functional; settings: time 6 day
Mus musculus [23] = assay: Anti-inflammatory activity against DSS-induced acute ulcerative colitis in C57BL/6 mouse model assessed as decrease in colon tissue damage score at 40 mg/kg, po QD for 6 days relative to DSS group; assay type: functional; design: scale not given: the % may be the effect or the level left; settings: time 6 day
Mus musculus [24] = assay: Anti-inflammatory activity against DSS-induced acute ulcerative colitis in C57BL/6 mouse model assessed as decrease in IL-6 mRNA expression level in colon at 40 mg/kg, po QD for 6 days by RT-PCR analysis; assay type: functional, organism-based; settings: time 6.0 day
[25] = Half life in Sprague-Dawley rat at 5 mg/kg, iv and measured upto 48 hrs by LC-MS/MS analysis; assay type: ADME, organism-based; settings: in vivo
[26] = Apparent volume of distribution during terminal phase in Sprague-Dawley rat at 5 mg/kg, iv and measured upto 48 hrs by LC-MS/MS analysis; assay type: ADME, organism-based; settings: in vivo
[27] = Tmax in Sprague-Dawley rat at 15 mg/kg, po and measured upto 48 hrs by LC-MS/MS analysis; assay type: ADME, organism-based; settings: in vivo
[28] = Half life in Sprague-Dawley rat at 15 mg/kg, po and measured upto 48 hrs by LC-MS/MS analysis; assay type: ADME, organism-based; settings: in vivo
[29] = Clearance in Sprague-Dawley rat at 15 mg/kg, po and measured upto 48 hrs by LC-MS/MS analysis; assay type: ADME, organism-based; settings: in vivo
Mus musculus [30] = assay: Anti-inflammatory activity against DSS-induced acute ulcerative colitis in C57BL/6 mouse model assessed as decrease in DAI score at 20 to 80 mg/kg, po QD for 6 days; assay type: functional, organism-based; settings: dose 20-80 mg/kg, time 6.0 day
Mus musculus [31] = assay: Anti-inflammatory activity against DSS-induced acute ulcerative colitis in C57BL/6 mouse model assessed as increase in colon length at 20 mg/kg, po QD for 6 days (Rvb= 5.3cm); assay type: functional; settings: time 6 day
Mus musculus [32] = assay: Anti-inflammatory activity against DSS-induced acute ulcerative colitis in C57BL/6 mouse model assessed as increase in colon length at 80 mg/kg, po QD for 6 days (Rvb= 5.3cm); assay type: functional; settings: time 6 day
Mus musculus [33] = assay: Anti-inflammatory activity against DSS-induced acute ulcerative colitis in C57BL/6 mouse model assessed as recovery in colon damage at 20 to 80 mg/kg, po QD for 6 days by H and E staining based microscopy; assay type: functional, organism-based; settings: dose 20-80 mg/kg, time 6.0 day
Mus musculus [34] = assay: Anti-inflammatory activity against DSS-induced acute ulcerative colitis in C57BL/6 mouse model assessed as decrease in IL-6 mRNA expression level in colon at 20 to 80 mg/kg, po QD for 6 days by RT-qPCR analysis; assay type: functional, organism-based; settings: dose 20-80 mg/kg, time 6.0 day
Mus musculus [35] = assay: Anti-inflammatory activity against DSS-induced acute ulcerative colitis in C57BL/6 mouse model assessed as decrease in IL-17 mRNA expression level in colon at 20 to 80 mg/kg, po QD for 6 days by RT-qPCR analysis; assay type: functional, organism-based; settings: dose 20-80 mg/kg, time 6.0 day
Mus musculus [36] = assay: Anti-inflammatory activity against DSS-induced acute ulcerative colitis in C57BL/6 mouse model assessed as decrease in IL-1beta mRNA expression level in colon at 20 to 80 mg/kg, po QD for 6 days by RT-qPCR analysis; assay type: functional, organism-based; settings: dose 20-80 mg/kg, time 6.0 day
Mus musculus [37] = assay: Anti-inflammatory activity against DSS-induced acute ulcerative colitis in C57BL/6 mouse model assessed as decrease in IL-1beta protein level in colon at 20 to 80 mg/kg, po QD for 6 days by ELISA; assay type: functional, organism-based; settings: dose 20-80 mg/kg, time 6.0 day

Nc1nc(-c2cn(Cc3c(F)cccc3Cl)c3ncccc23)ncc1C1CC1
half-life at 3 µM [1]: 18.9 min
half-life at 3 µM [2]: 7.8 min
half-life at 3 µM [3]: 9.4 min
CLint scaled at 3 µM [4]: 91.8 mL/min/kg
CLint scaled at 3 µM [5]: 319 mL/min/kg
CLint scaled at 3 µM [6]: 581 mL/min/kg
logP [7]: 5.3
Activity [8]: Non-Toxic
Activity [9]: Non-Toxic
Activity [10]: Non-Toxic
Activity [11]: Non-Toxic
Activity [12]: Non-Toxic
Activity [13]: Non-Toxic
Activity [14]: Non-Toxic
Activity [15]: Non-Toxic
Activity [16]: Non-Toxic
Activity [17]: Non-Toxic
Activity [18]: Non-Toxic
Activity [19]: Non-Toxic
Activity [20]: Non-Toxic
Activity (Mus musculus [21]): Active
Activity (Mus musculus [22]): 7 cm
Activity (Mus musculus [23]): 54.55%
Activity (Mus musculus [24]): Active
half-life [25]: 156 min
Vz/F [26]: 1.05 L/kg
Tmax [27]: 120 min
half-life [28]: 96 min
CL/F [29]: 21.7 mL/min/kg
Activity (Mus musculus [30]): Dose-Dependent Effect
Activity (Mus musculus [31]): 6.1 cm
Activity (Mus musculus [32]): 7.5 cm
Activity (Mus musculus [33]): Dose-Dependent Effect
Activity (Mus musculus [34]): Dose-Dependent Effect
Activity (Mus musculus [35]): Dose-Dependent Effect
Activity (Mus musculus [36]): Dose-Dependent Effect
Activity (Mus musculus [37]): Dose-Dependent Effect
